Measurements reported in ChEMBL document CHEMBL1142830, “QSAR studies on structurally similar 2-(4-methanesulfonylphenyl)pyran-4-ones as selective COX-2 inhibitors: a Hansch approach” (Bioorg Med Chem Lett, 2005).

Biological target: T1, Prostaglandin G/H synthase 2 (Homo sapiens, UniProt P35354)
T1 sequence (P35354 whole entry): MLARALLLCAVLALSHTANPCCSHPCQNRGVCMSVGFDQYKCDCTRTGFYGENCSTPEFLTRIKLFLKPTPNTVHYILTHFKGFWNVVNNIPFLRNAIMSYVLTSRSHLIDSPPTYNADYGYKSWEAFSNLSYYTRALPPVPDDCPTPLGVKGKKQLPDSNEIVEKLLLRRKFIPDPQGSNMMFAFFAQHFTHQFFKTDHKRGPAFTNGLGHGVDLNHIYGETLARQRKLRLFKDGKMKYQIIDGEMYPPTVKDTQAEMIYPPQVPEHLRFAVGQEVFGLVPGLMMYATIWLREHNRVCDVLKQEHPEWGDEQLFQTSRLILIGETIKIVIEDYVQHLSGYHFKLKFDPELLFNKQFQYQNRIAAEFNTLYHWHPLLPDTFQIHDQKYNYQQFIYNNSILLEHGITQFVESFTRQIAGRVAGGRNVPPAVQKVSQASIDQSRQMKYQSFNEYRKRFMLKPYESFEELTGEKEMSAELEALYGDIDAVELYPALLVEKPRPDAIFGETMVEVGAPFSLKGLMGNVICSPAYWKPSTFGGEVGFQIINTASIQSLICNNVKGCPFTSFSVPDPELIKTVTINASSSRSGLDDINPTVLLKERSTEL
Test: Inhibitory concentration for Cyclooxygenase-2 (Prostaglandin G/H synthase 2) in human whole blood
Assay type: tissue-based

IC50 [µM]	Compound
2.45	Cc1cc(=O)c(Oc2ccc(OC(F)(F)F)cc2)c(-c2ccc(S(C)(=O)=O)cc2)o1
3.38	Cc1cc(=O)c(Oc2ccc(Cl)cc2Cl)c(-c2ccc(S(C)(=O)=O)cc2)o1
87.9	CS(=O)(=O)c1ccc(-c2occ(Cl)c(=O)c2-c2ccc(-c3ccccc3)c(F)c2)cc1
